Test results reported in PubChem BioAssay (NCI).
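The compound was tested at five concentrations on cells cultured in 96-well plates, with a 48-hour exposure period. TGI: concentration producing complete growth inhibition.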

Columns and labels:
Assay in all cases: DTP human tumour cell line panel, 48 h
UO-31 renal = tested on: UO-31 renal
M14 melanoma = tested on: M14 melanoma
NCI-H226 lung = tested on: NCI-H226 lung
SK-MEL-5 melanoma = tested on: SK-MEL-5 melanoma
SF-295 CNS = tested on: SF-295 CNS
A549 NSCLC = tested on: A549 NSCLC
MALME-3M melanoma = tested on: MALME-3M melanoma
OVCAR-5 ovarian = tested on: OVCAR-5 ovarian
ACHN renal = tested on: ACHN renal
CCRF-CEM leukemia = tested on: CCRF-CEM leukemia
HCC-2998 colon = tested on: HCC-2998 colon
SF-268 CNS = tested on: SF-268 CNS
HOP-18 NSCLC = tested on: HOP-18 NSCLC
UACC-257 melanoma = tested on: UACC-257 melanoma
KM12 colon = tested on: KM12 colon
KM20L2 colon = tested on: KM20L2 colon
HL-60(TB) leukemia = tested on: HL-60(TB) leukemia
SNB-75 CNS = tested on: SNB-75 CNS
UACC-62 melanoma = tested on: UACC-62 melanoma
DMS 114 small cell lung = tested on: DMS 114 small cell lung
XF 498 CNS = tested on: XF 498 CNS
OVCAR-3 ovarian = tested on: OVCAR-3 ovarian
SK-OV-3 ovarian = tested on: SK-OV-3 ovarian
MOLT-4 leukemia = tested on: MOLT-4 leukemia
RXF-631 renal = tested on: RXF-631 renal
HT29 colon = tested on: HT29 colon
HCT-15 colon = tested on: HCT-15 colon
DMS 273 small cell lung = tested on: DMS 273 small cell lung
786-0 renal = tested on: 786-0 renal
SK-MEL-28 melanoma = tested on: SK-MEL-28 melanoma
SN12C renal = tested on: SN12C renal
A498 renal = tested on: A498 renal
OVCAR-8 ovarian = tested on: OVCAR-8 ovarian
SNB-78 CNS = tested on: SNB-78 CNS
COLO 205 colon = tested on: COLO 205 colon
SW-620 colon = tested on: SW-620 colon
SNB-19 CNS = tested on: SNB-19 CNS
DLD-1 colon = tested on: DLD-1 colon
CAKI-1 renal = tested on: CAKI-1 renal
RPMI-8226 leukemia = tested on: RPMI-8226 leukemia
NCI-H23 lung = tested on: NCI-H23 lung
M19-MEL melanoma = tested on: M19-MEL melanoma
EKVX NSCLC = tested on: EKVX NSCLC
SF-539 CNS = tested on: SF-539 CNS
OVCAR-4 ovarian = tested on: OVCAR-4 ovarian
SK-MEL-2 melanoma = tested on: SK-MEL-2 melanoma
LXFL 529 NSCLC = tested on: LXFL 529 NSCLC
U251 CNS = tested on: U251 CNS
NCI-H522 lung = tested on: NCI-H522 lung
TK-10 renal = tested on: TK-10 renal
HOP-62 NSCLC = tested on: HOP-62 NSCLC
NCI-H460 lung = tested on: NCI-H460 lung
LOX IMVI melanoma = tested on: LOX IMVI melanoma
IGROV1 ovarian = tested on: IGROV1 ovarian
K-562 leukemia = tested on: K-562 leukemia
SR leukemia = tested on: SR leukemia
HOP-92 NSCLC = tested on: HOP-92 NSCLC
HCT-116 colon = tested on: HCT-116 colon
RXF 393 renal = tested on: RXF 393 renal

Measured: TGI

CC(=O)c1c(C)n([O-])c2cc(C)c(C)cc2[n+]1=O
not listed: SR leukemia | HOP-92 NSCLC | HCT-116 colon | RXF 393 renal
> 100 µM: all other assays above

CCOC(=O)/C(=C/c1ccco1)P(=O)(OCC)OCC
not listed: KM20L2 colon | OVCAR-3 ovarian | RXF-631 renal | DMS 273 small cell lung | SNB-19 CNS | HOP-62 NSCLC | RXF 393 renal
> 100 µM: all other assays above

c1ccc([P+](Cc2csnn2)(c2ccccc2)c2ccccc2)cc1
not listed: RXF-631 renal | 786-0 renal | K-562 leukemia
> 100 µM: all other assays above
